Among the data in ChEMBL document CHEMBL3860075, “Synthesis, characterization, and evaluation of (E)-methyl 2-((2-oxonaphthalen-1(2H)-ylidene)methylamino)acetate as a biological agent and an anion sensor” (Bioorg Med Chem, 2016) are MIC and Activity values, retold here.

As a reminder, the MIC is the least concentration at which growth counts as inhibited. Low readings indicate a more susceptible organism, high ones a less susceptible organism.

The structures appear in SMILES notation. In brackets after ≈: the same amount, converted by molar mass. Activity calls are given as the source filed them. The rule behind the calls is not given here.

The test system of one data set is Pseudomonas aeruginosa. Put plainly: Antimicrobial activity against Pseudomonas aeruginosa ATCC 254992 after 24 hrs by broth microdilution assay. Format: functional. To be noted: ATCC 254992, 24 h. For orientation: Dilution methods test growth across graded concentrations, often in twofold steps.
The test system of the next data set is Proteus vulgaris. Nature of the data set: Antimicrobial activity against Proteus vulgaris ATCC 13315 after 24 hrs by broth microdilution assay. The class given is functional. To be noted: ATCC 13315, 24 h.
A further data set deals with Bacillus spizizenii. Nature of the data set: Antimicrobial activity against Bacillus subtilis ATCC 6633 after 24 hrs by broth microdilution assay. Format: functional. To be noted: ATCC 6633, 24 h.
Another data set relates to Enterococcus faecalis. Nature of the data set: Antimicrobial activity against Enterococcus faecalis ATCC 29212 after 24 hrs by broth microdilution assay. To be noted: ATCC 29212, 24 h. Format: functional.
A further data set relates to Candida tropicalis. Nature of the data set: Antimicrobial activity against Candida tropicalis ATCC 13803 after 24 hrs by broth microdilution assay. The class given is functional. To be noted: ATCC 13803, 24 h.
A short description of data set [1]: Binding affinity to 0.5 equiv tetrabutylamonium fluoride anion assessed as decrease in N-H proton intensity by 1H NMR method.
The subject of data set [2] is Escherichia coli. Put plainly: Antimicrobial activity against Escherichia coli ATCC 25922 after 24 hrs by broth microdilution assay. To be noted: ATCC 25922, 24 h. Format: functional.
Data set [3] can be described thus: Binding affinity to cyanide anion assessed as compound color change from colorless to yellow at compound:anion ratio of 1:1 under UV light by colorimetric method.
The next data set relates to Candida albicans. Put plainly: Antimicrobial activity against Candida albicans ATCC 60193 after 24 hrs by broth microdilution assay. To be noted: ATCC 60193, 24 h. The class given is functional.
For data set [4], the species on record is Bos taurus. Put plainly: Binding affinity to calf thymus DNA assessed as bathochromism at 3 10^-5M after 5 mins by UV-visible spectroscopic analysis.
The subject of data set [5] is Salmonella typhimurium. Put plainly: Genotoxicity in Salmonella typhimurium TA98 at 0.5 to 500 ppm per plate in absence of S9 fraction by Ames test. The class given is toxicity, organism-based. To be noted: salmonella enterica subsp. enterica serovar typhimurium. (In general: The Ames test detects mutagens through reverse mutation in bacteria.)
The nature of data set [6]: Binding affinity to cyanide anion assessed as compound color change from colorless to yellow at compound:anion ratio of 1:1 under natural light by colorimetric method.
The next data set has as its system Staphylococcus aureus. Put plainly: Antimicrobial activity against Staphylococcus aureus ATCC 25923 after 24 hrs by broth microdilution assay. The class given is functional. To be noted: ATCC 25923, 24 h.
The test system of data set [7] is Escherichia coli. Nature of the data set: Induction of oxidative cleavage of Escherichia coli supercoiled pBR322 DNA assessed as increase in nicked circular form at 25 uM after 3 hrs in presence of H2O2 by agarose gel electrophoretic analysis.
The nature of data set [8]: Binding affinity to cyanide anion assessed as disappearance of peak at 430 nanometer at 5 10^-6M by UV-visible spectroscopic analysis.
Data set [9] relates to Escherichia coli. Nature of the data set: Induction of hydrolytic cleavage of Escherichia coli supercoiled pBR322 DNA assessed as increase in nicked circular form at 200 uM after 3 hrs by agarose gel electrophoretic analysis.
Data set [10] has as its system Escherichia coli. Put plainly: Antimicrobial activity against Escherichia coli ATCC 35218 after 24 hrs by broth microdilution assay. Format: functional. To be noted: ATCC 35218, 24 h.
Data set [11] concerns Salmonella typhimurium. Put plainly: Genotoxicity in Salmonella typhimurium TA100 at 0.5 to 500 ppm per plate in absence of S9 fraction by Ames test. To be noted: salmonella enterica subsp. enterica serovar typhimurium. The class given is toxicity, organism-based.
Data set [12] is described as follows: Binding affinity to 1 equiv tetrabutylamonium fluoride anion assessed as disappearance of peak by 1H NMR method.
For data set [13], the species on record is Bos taurus. Put plainly: Binding affinity to calf thymus DNA assessed as formation of intense band at 260 nanometer at 3 10^-5M after 5 mins by UV-visible spectroscopic analysis.

Turning to `CC1(C)S[C@@H]2[C@H](NC(=O)[C@H](N)c3ccccc3)C(=O)N2[C@H]1C(=O)O` [AMPICILLIN], the MIC in the data set with Pseudomonas aeruginosa came out at 2 µg/mL (≈ 5.72 µM); with Proteus vulgaris, 2 µg/mL (≈ 5.72 µM); against Bacillus spizizenii it was 1 µg/mL (≈ 2.86 µM); in the data set with Enterococcus faecalis, 2 µg/mL (≈ 5.72 µM).
Turning to `OC(Cn1cncn1)(Cn1cncn1)c1ccc(F)cc1F` [FLUCONAZOLE], the MIC against Candida tropicalis came to 32 µg/mL (≈ 104 µM).
Regarding `COC(=O)CN/C=C1/C(=O)C=Cc2ccccc21`, the outcome (in data set [1]; in data set [3]; in [6]; in the data set with Escherichia coli [7]; in data set [8]; in the data set with Escherichia coli [9]) was Active. Also, the result (in data set [12]; in the data set filed under Bos taurus [13]) was Active. The minimal inhibitory concentration (MIC) was 256 µg/mL (≈ 1050 µM) against Escherichia coli [2]; 128 µg/mL (≈ 526 µM) against Candida tropicalis; 128 µg/mL (≈ 526 µM) against Pseudomonas aeruginosa; 128 µg/mL (≈ 526 µM) against Candida albicans; 128 µg/mL (≈ 526 µM) against Staphylococcus aureus; 256 µg/mL (≈ 1050 µM) against Proteus vulgaris. For the same molecule, the values for the MIC against Bacillus spizizenii, in the data set with Escherichia coli [10] and against Enterococcus faecalis were 128 µg/mL (≈ 526 µM), 256 µg/mL (≈ 1050 µM) and 256 µg/mL (≈ 1050 µM), respectively. In addition, the figures for the Activity in the data set filed under Bos taurus [4], in the data set with Salmonella typhimurium [5] and in the data set with Salmonella typhimurium [11] were 1 to 4 nm, “Non-Toxic” and greater than 40%, respectively.
